From PubChem BioAssay (NCI)
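These data come from cells grown in 96-well plates and exposed to compound for 48 hours at five concentrations. Here, GI50 denotes the concentration required for 50% inhibition of growth. TGI: concentration producing complete growth inhibition.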

Tests used:
Experiment in all cases: inhibition of tumour cell growth, NCI panel, 48 h
[1] = tested on: COLO 205 colon
[2] = tested on: HOP-92 NSCLC
[3] = tested on: HS 578T breast
[4] = tested on: IGROV1 ovarian
[5] = tested on: K-562 leukemia
[6] = tested on: NCI/ADR-RES ovarian
[7] = tested on: SN12C renal
[8] = tested on: SR leukemia
[9] = tested on: T-47D breast
[10] = tested on: UACC-62 melanoma

| Compound | TGI [1] [µM] | TGI [2] [µM] | TGI [3] [µM] | TGI [4] [µM] | TGI [5] [µM] | TGI [6] [µM] | TGI [7] [µM] | TGI [8] [µM] | TGI [9] [µM] | TGI [10] [µM] | GI50 [1] [µM] | GI50 [2] [µM] | GI50 [3] [µM] | GI50 [4] [µM] | GI50 [5] [µM] | GI50 [6] [µM] | GI50 [7] [µM] | GI50 [8] [µM] | GI50 [9] [µM] | GI50 [10] [µM] |
| --- | --- | --- | --- | --- | --- | --- | --- | --- | --- | --- | --- | --- | --- | --- | --- | --- | --- | --- | --- | --- |
| CN=C(N)/N=C(\N)Nc1cc2ccccc2c2ccccc12 | 28.2 | 40.8 | 42.3 | 35.5 | 44.5 | 49.9 | 27.2 | 47.8 | 40.5 | 28.2 |  |  |  |  |  |  |  |  |  |  |
| CCCC1=C(C(=O)OCC)C(c2ccccc2OC)C(C#N)=C(N)O1 (centres undefined) | > 100 | > 100 | > 100 | 36.4 | > 100 | > 100 | 41.4 | > 100 | > 100 |  | 66.3 | 37.7 | > 100 | 14.7 | 31.9 | 37.6 | 16.6 | 29.1 | 43.4 |  |
| CCOC(=O)C(=O)Nc1c(CC)cccc1C(C)CC (centres undefined) | > 100 | > 100 |  | > 100 | > 100 |  | > 100 | > 100 |  | > 100 |  |  |  |  |  |  |  |  |  |  |
| N#CCCOCN(CO)c1nc(N(CO)COCCC#N)nc(N(CO)COCCC#N)n1 | 32.3 | 45.8 |  | > 100 | 61.2 |  | 44.2 | 41.7 |  |  |  |  |  |  |  |  |  |  |  |  |
| CC(=O)N1CC(=O)NC1=S | > 100 | > 100 |  | > 100 | > 100 |  | > 100 | > 100 |  | > 100 |  |  |  |  |  |  |  |  |  |  |
| COc1cc2c(cc1OC)C1Cc3cc(OC)c(OC)cc3C(C2)O1 | > 100 | > 100 |  | > 100 | > 100 | > 100 | > 100 |  | > 100 | > 100 |  |  |  |  |  |  |  |  |  |  |
| Nc1cccc2c1C1=NNC(=O)CC1C2 (centres undefined) | > 100 | 4.46 |  | > 100 | > 100 | > 100 | > 100 |  |  | > 100 |  |  |  |  |  |  |  |  |  |  |
| NC(=O)Nc1ccc(C(=O)NCCCNC(=O)c2ccc(NC(N)=O)cc2)cc1 | > 100 | > 100 | > 100 | > 100 | > 100 | > 100 |  | > 100 | > 100 | > 100 |  |  |  |  |  |  |  |  |  |  |
| Cc1c2cc[n+](C)cc2c(C)c2c1[nH]c1ccc(Cl)cc12 | 10.9 | 26.5 | 0.743 | 38.2 | 45.5 | > 100 | 3.42 | > 78.1 | 14.8 | 45.1 |  |  |  |  |  |  |  |  |  |  |
| O=C(Nc1cccc([N+](=O)[O-])c1)C(=O)C(C(=O)c1ccccc1F)C1OC(=O)C2C=CC=CC21 (centres undefined) | > 100 | > 100 |  | > 100 | > 100 |  | > 100 | 84.7 |  | > 100 |  |  |  |  |  |  |  |  |  |  |
| COc1cc(NC(=O)CSc2nc3ccccc3c(=O)n2CCc2ccccc2)cc(OC)c1OC |  | 3.44 | > 100 | 4.46 |  | > 100 |  |  |  |  |  | 0.587 | 3.52 | 1.93 |  | 3.77 |  |  |  |  |
| CNS(=O)(=O)c1ccc2[nH]c(O)c(C3=Nc4ccccc4C3=O)c2c1 | > 100 |  | > 100 | > 100 | > 100 | > 100 | > 100 |  | > 100 | > 100 |  |  |  |  |  |  |  |  |  |  |
| O=C(NCCNc1nccc(-c2c(-c3cccc(O)c3)nc3sccn23)n1)Nc1cccc(C(F)(F)F)c1 | 12 | 9.38 | 17.8 | 13.1 | 57.1 | > 100 | 20 | 40 | 25.6 | 6.51 | 3.36 | 2.19 | 3.56 | 3.48 | 3.42 | 26.9 | 3.42 | 6.08 | 6.52 | 1.94 |
| Cc1ccc2ccc3ccc(C)nc3c2n1 | > 100 | > 100 | > 100 | > 100 | > 100 | > 100 | > 100 | > 100 | > 100 | > 100 |  |  |  |  |  |  |  |  |  |  |
| C[C@H](N[C@H]1CCC[C@]1(O)C#Cc1ccc2c(c1)OCO2)c1ccccc1 | > 25 | > 25 | > 25 | > 25 | > 25 | > 25 |  | > 25 | > 25 | > 25 |  |  |  |  |  |  |  |  |  |  |
